Experimental data taken from ChEMBL document CHEMBL4350983, “Combining structure- and property-based optimization to identify selective FLT3-ITD inhibitors with good antitumor efficacy in AML cell inoculated mouse xenograft model” (Eur J Med Chem, 2019).

What was measured:
[1] = Half-life in Sprague-Dawley rat at 1 mg/kg, iv measured up to 24 hrs by LC-MS/MS analysis; format: ADME, organism-based; settings: in vivo
[2] = Half-life in Sprague-Dawley rat at 5 mg/kg, po measured up to 24 hrs by LC-MS/MS analysis; format: ADME, organism-based; settings: in vivo
[3] = Cmax in Sprague-Dawley rat at 1 mg/kg, iv measured up to 24 hrs by LC-MS/MS analysis; format: ADME, organism-based; parameters: dose 1 mg/kg, route intravenous; settings: in vivo
[4] = Cmax in Sprague-Dawley rat at 5 mg/kg, po measured up to 24 hrs by LC-MS/MS analysis; format: ADME, organism-based; parameters: dose 5 mg/kg, route oral; settings: in vivo
[5] = Tmax in Sprague-Dawley rat at 5 mg/kg, po measured up to 24 hrs by LC-MS/MS analysis; format: ADME, organism-based; settings: in vivo
[6] = AUCt in Sprague-Dawley rat at 1 mg/kg, iv measured up to 24 hrs by LC-MS/MS analysis; format: ADME, organism-based; parameters: dose 1 mg/kg, time < 24 hr, route intravenous; settings: in vivo
[7] = AUCt in Sprague-Dawley rat at 5 mg/kg, po measured up to 24 hrs by LC-MS/MS analysis; format: ADME, organism-based; parameters: time < 24 hr, dose 5 mg/kg, route oral; settings: in vivo
[8] = AUC (0 to infinity) in Sprague-Dawley rat at 5 mg/kg, po measured up to 24 hrs by LC-MS/MS analysis; format: ADME, organism-based; parameters: dose 5 mg/kg, route oral, time infinity; settings: in vivo
[9] = AUC (0 to infinity) in Sprague-Dawley rat at 1 mg/kg, iv measured up to 24 hrs by LC-MS/MS analysis; format: ADME, organism-based; parameters: dose 1 mg/kg, time infinity, route intravenous; settings: in vivo
[10] = Mean residence time (0 to t) in Sprague-Dawley rat at 1 mg/kg, iv measured up to 24 hrs by LC-MS/MS analysis; format: ADME, organism-based; settings: in vivo
[11] = Mean residence time (0 to t) in Sprague-Dawley rat at 5 mg/kg, po measured up to 24 hrs by LC-MS/MS analysis; format: ADME, organism-based; settings: in vivo
[12] = Apparent volume of distribution in Sprague-Dawley rat at 1 mg/kg, iv measured up to 24 hrs by LC-MS/MS analysis; format: ADME, organism-based; settings: in vivo, read-out: Vz
[13] = Apparent volume of distribution in Sprague-Dawley rat at 5 mg/kg, po measured up to 24 hrs by LC-MS/MS analysis; format: ADME, organism-based; settings: in vivo
[14] = Apparent clearance in Sprague-Dawley rat at 1 mg/kg, iv measured up to 24 hrs by LC-MS/MS analysis; format: ADME, organism-based; settings: in vivo, read-out: CL(app) (converted)
[15] = Apparent clearance in Sprague-Dawley rat at 5 mg/kg, po measured up to 24 hrs by LC-MS/MS analysis; format: ADME, organism-based; settings: in vivo, read-out: CL(app) (converted)
[16] = Oral bioavailability in Sprague-Dawley rat at 5 mg/kg measured up to 24 hrs by LC-MS/MS analysis; format: ADME, organism-based; settings: in vivo
[17] = human, microsomes, 0.25 h, 1 µM
[18] = rat, microsomes, 0.25 h, 1 µM
in vitro [19] = settings: human, liver microsomes
in vitro [20] = settings: rat, liver microsomes

half-life [1]: 1.96 h
half-life [2]: 3.07 h
Cmax [3]: 205 ng/mL
Cmax [4]: 27 ng/mL
Tmax [5]: 2.83 h
AUC(0-t) at 24 h [6]: 152 ng·h/mL
AUC(0-t) at 24 h [7]: 173 ng·h/mL
AUC(0-inf) [8]: 194 ng·h/mL
AUC(0-inf) [9]: 161 ng·h/mL
MRT last at 24 h [10]: 2.75 h
MRT last at 24 h [11]: 5.9 h
Vd [12]: 18.2 L/kg
Vz [13]: 105.05 L/kg
clearance [14]: 110 mL/min/kg
CL/F [15]: 445 mL/min/kg
bioavailability [16]: 22.8%
CLH [17]: 0.0118 mL/min/kg
CLH [18]: 0.168 mL/min/kg
half-life at 0.25 h, 1 µM (in vitro [19]): 1.95 h
half-life at 0.25 h, 1 µM (in vitro [20]): 8.27 min
SMILES: CN1CCC(Nc2ccc(C(=O)Nc3cc(-c4ccc5c(c4)OCO5)n[nH]3)cc2)CC1
